For assay [1], the system named is SKBr3 (estrogen receptor negative, HER2 over-expressing breast cancer cells). Nature of the assay: Anti-proliferation assay (MTS/PMS, 72 h), SKBr3. Conditions: Homo sapiens. The assay is classed as cell-based. The protocol:
(§1) Cells were maintained in a 1:1 mixture of Advanced DMEM/F12 (Gibco) supplemented with non-essential amino acids, L-glutamine (2 mM), streptomycin (500 μg/mL), penicillin (100 units/mL), and 10% FBS. Cells were grown to confluence in a humidified atmosphere (37° C., 5% CO2), seeded (2000/well, 100 μL) in 96-well plates, and allowed to attach overnight. Compound at varying concentrations in DMSO (1% DMSO final concentration) was added, and cells were returned to the incubator for 72 h. At 72 h, the number of viable cells was determined using an MTS/PMS cell proliferation kit (Promega) per the manufacturer's instructions. Cells incubated in 1% DMSO were used at 100% proliferation, and values were adjusted accordingly. IC50 values were calculated from separate experiments performed in triplicate using GraphPad Prism.
(§2) Anti-proliferative studies with the compounds described herein were performed against the SKBr3 (estrogen receptor negative, HER2 over-expressing breast cancer cells) and MCF-7 (estrogen receptor positive breast cancer cells) breast cancer cell lines. […] In some embodiments, in contrast to the novobiocin derivatives, which usually manifest better anti-proliferative activities against the SKBr3 cell line, the biphenyl derivatives described herein were more efficacious against the MCF-7 cell line. In general, all substitutions on the phenyl ring were determined to be beneficial, consistent with the existence of a hydrophobic pocket in this region of the Hsp90 C-terminal binding site.

Assay [2] has as its system MCF-7 (estrogen receptor positive breast cancer cells). The assay can be described thus: Anti-proliferation assay (MTS/PMS, 72 h), MCF-7. The assay is classed as cell-based. The settings on record: Homo sapiens. The protocol:
as §1, §2

[3] abbreviates: SK-BR-3, Table 6, para-para biphenyl core with substituted benzylamide.
Where [4] appears, read: MCF7, Table 6, para-para biphenyl core with substituted benzylamide.
Where [5] appears, read: SK-BR-3, Table 11, heteroatom linked biphenyl core.
Where [6] appears, read: MCF7, Table 11, heteroatom linked biphenyl core.
[7] abbreviates: SK-BR-3, Table 8, para-para biphenyl core with substituted biphenylamide group.
The mark [8] stands for this setting: MCF7, Table 8, para-para biphenyl core with substituted biphenylamide group.
[9] abbreviates: SK-BR-3, Table 3, substituted para-para biphenyl core.
[10] abbreviates: MCF7, Table 3, substituted para-para biphenyl core.
The mark [11] stands for this setting: SK-BR-3, Table 1, ortho, meta and para biphenyl cores.
The mark [12] stands for this setting: SK-BR-3, Table 2, para-meta biphenyl core with substituted benzylamide.
Setting [13] is: MCF7, Table 1, ortho, meta and para biphenyl cores.
Where [14] appears, read: MCF7, Table 2, para-meta biphenyl core with substituted benzylamide.
[15] abbreviates: SK-BR-3, Table 7, para-para biphenyl core with modified ether groups.

This is an account of results in patent publication US10689344B2, “Biphenylamide derivative Hsp90 inhibitors” (University of Kansas, priority 2013, dated 2020).

Regarding `CN1CCC(Oc2ccc(-c3ccc(NC(=O)c4ccc(-c5ccccc5)cc4)cc3)cc2)CC1` [Compound 41s, N-(4′-((1-methylpiperidin-4-yl)oxy)-[1,1′-biphenyl]-4-yl)-[1,1′-biphenyl]-4-carboxamide], the IC50 in assay [1] (setting [3]) is 4590 ± 60 nM; in assay [2] (setting [4]), 4440 ± 600 nM.
As to `CN1CCC(Oc2ccc(-c3ccc(NC(=O)c4cc(Cl)cc(Cl)c4)cc3)cc2)CC1` [Compound 41o, 3,5-dichloro-N-(4′-((1-methylpiperidin-4-yl)oxy)-[1,1′-biphenyl]-4-yl)benzamide], the IC50 in assay [1] (setting [3]) was found to be 810 ± 280 nM; in assay [2] (setting [4]) it was 1680 ± 130 nM.
Take `CN1CCC(Oc2ccc(Nc3ccc(NC(=O)c4ccc(Cl)cc4)cc3)cc2)CC1`: the figures for the concentration for half-maximal inhibition (IC50) in assay [1] (setting [5]) and in assay [2] (setting [6]) were 6440 ± 2610 nM and 7100 nM, respectively.
With `Cc1ccc(C(=O)Nc2ccc(-c3ccc(OC4CCN(C)CC4)cc3)cc2)cc1-c1cccc(Cl)c1` [Compound 49k], the IC50 in assay [1] (setting [7]) was 3160 ± 370 nM; in assay [2] (setting [8]) it was 1600 ± 110 nM.
Regarding `COc1cccc(-c2cc(C(=O)Nc3ccc(-c4ccc(OC5CCN(C)CC5)cc4)cc3OC)ccc2OC)c1` [Compound 29h, 3′,6-dimethoxy-N-(3-methoxy-4′-((1-methylpiperidin-4-yl)oxy)-[1,1′-biphenyl]-4-yl)-[1,1′-biphenyl]-3-carboxamide], the figures for the IC50 in assay [1] (setting [9]) and in assay [2] (setting [10]) were 3920 ± 210 nM and 1220 ± 40 nM, respectively.
As for `COc1ccc(C(=O)Nc2cccc(-c3ccc(OC4CCN(C)CC4)cc3)c2)cc1` [Compound 6f, 4-methoxy-N-(4′-((1-methylpiperidin-4-yl)oxy)-[1,1′-biphenyl]-3-yl)benzamide], the IC50 in assay [1] (setting [11]) came to 10100 ± 930 nM; in assay [1] (setting [12]), 10100 ± 930 nM; in assay [2] (setting [13]), 5520 ± 10 nM; in assay [2] (setting [14]), 5520 ± 10 nM.
Take `COc1cccc(-c2cc(C(=O)Nc3ccc(-c4ccc(OC5CCN(C)CC5)cc4)cc3)ccc2O)c1` [Compound 49j]: the concentration for half-maximal inhibition (IC50) is 2780 ± 350 nM in assay [1] (setting [7]) and 2710 ± 450 nM in assay [2] (setting [8]).
With `CN1CCC(Oc2ccc(-c3cccc(NC(=O)c4ccc(Cl)cc4)c3)cc2)CC1` [Compound 6h, 4-Chloro-N-(4′-((1-methylpiperidin-4-yl)oxy)-[1,1′-biphenyl]-3-yl)benzamide], the IC50 in assay [1] (setting [11]) turned out to be 3630 ± 1030 nM; in assay [1] (setting [12]), 3630 ± 1030 nM; in assay [2] (setting [13]) it was 2230 ± 50 nM; in assay [2] (setting [14]) it was 2230 ± 50 nM.
For the compound `Cc1ccc(C(=O)Nc2ccc(-c3ccc(OC4CCN(C)CC4)cc3)cc2)cc1Cl` [Compound 41k, 3-chloro-4-methyl-N-(4′-((1-methylpiperidin-4-yl)oxy)-[1,1′-biphenyl]-4-yl)benzamide], the IC50 in assay [1] (setting [3]) came out at 1960 ± 240 nM; in assay [2] (setting [4]), 2280 ± 490 nM.
In the case of `CN1CCC(Oc2cccc(-c3cccc(NC(=O)c4ccc(Cl)cc4)c3)c2)CC1` [Compound 61g, 4-chloro-N-(3′-((1-methylpiperidin-4-yl)oxy)-[1,1′-biphenyl]-3-yl)benzamide], the values for the IC50 in assay [1] (setting [11]) and in assay [2] (setting [13]) were 4150 ± 960 nM and 4890 ± 80 nM, respectively.
Consider `CN1CCC(Oc2ccc(-c3ccc(NC(=O)c4cccc(-c5ccccc5)c4)cc3)cc2)CC1` [Compound 41r, N-(4′-((1-methylpiperidin-4-yl)oxy)-[1,1′-biphenyl]-4-yl)-[1,1′-biphenyl]-3-carboxamide], for which the concentration for half-maximal inhibition (IC50) in assay [1] (setting [3]) is 730 ± 70 nM; in assay [1] (setting [7]) it was 730 ± 70 nM; in assay [2] (setting [4]), 1150 ± 180 nM; in assay [2] (setting [8]), 1150 ± 180 nM.
As to `COc1cccc(-c2cc(C(=O)Nc3ccc(-c4ccc(OC5CCN(C)CC5)cc4C)cc3)ccc2OC)c1` [Compound 29b, 3′,6-dimethoxy-N-(2′-methyl-4′-((1-methylpiperidin-4-yl)oxy)-[1,1′-biphenyl]-4-yl)-[1,1′-biphenyl]-3-carboxamide], the values for the 50% inhibitory concentration (IC50) in assay [1] (setting [9]) and in assay [2] (setting [10]) were 1180 ± 110 nM and 1210 ± 30 nM, respectively.
With `CN1CCC(Oc2ccc(Nc3ccc(NC(=O)c4ccc5ccccc5c4)cc3)cc2)CC1`, the figures for the IC50 in assay [1] (setting [5]) and in assay [2] (setting [6]) were 4600 ± 250 nM and 2150 ± 10 nM, respectively.
Take `COc1cccc(-c2cc(C(=O)Nc3ccc(-c4ccc(OC5CCN(C)CC5)cc4)cc3N)ccc2OC)c1` [Compound 38d, N-(3-amino-4′-((1-methylpiperidin-4-yl)oxy)-[1,1′-biphenyl]-4-yl)-3′,6-dimethoxy-[1,1′-biphenyl]-3-carboxamide]: the IC50 is 3210 ± 450 nM in assay [1] (setting [9]) and 2250 ± 490 nM in assay [2] (setting [10]).
For `COc1cccc(-c2cc(C(=O)Nc3ccc(-c4ccc(OCCC5CCCCN5)cc4)cc3)ccc2OC)c1` (stereo not shown) [Compound 56a, 3′,6-dimethoxy-N-(4′-(2-(piperidin-2-yl)ethoxy)-[1,1′-biphenyl]-4-yl)-[1,1′-biphenyl]-3-carboxamide], the IC50 in assay [1] (setting [15]) is 850 ± 200 nM; in assay [2] (MCF7, Table 7, para-para biphenyl core with modified ether groups), 950 nM.
`COc1cccc(-c2cc(C(=O)Nc3ccc(-c4ccc(OC5CCN(C)CC5)cc4)nc3)ccc2OC)c1` [Compound 19c, 3′,6-dimethoxy-N-(6-(4-((1-methylpiperidin-4-yl)oxy)phenyl)pyridin-3-yl)-[1,1′-biphenyl]-3-carboxamide]: the IC50 in assay [1] (SK-BR-3, Table 4, para-para heteroatom substituted biphenyl core) worked out at 1210 ± 130 nM; in assay [2] (MCF7, Table 4, para-para heteroatom substituted biphenyl core) it was 1020 ± 10 nM.
Regarding `CCCOc1ccc(C(=O)Nc2ccc(-c3ccc(OC4CCN(C)CC4)cc3)cc2)cc1-c1cccc(OC)c1`, the IC50 in assay [1] (SK-BR-3, Table 10, longer alkyl chain substituted biphenyl core) is 1030 ± 40 nM; in assay [2] (MCF7, Table 10, longer alkyl chain substituted biphenyl core), 1660 ± 120 nM.
Take `COc1cccc(-c2cc(C(=O)Nc3ccc(-c4ccc(OC5CCN(C)CC5)c(OC)c4)cc3)ccc2OC)c1` [Compound 29e, 3′,6-dimethoxy-N-(3′-methoxy-4′-((1-methylpiperidin-4-yl)oxy)-[1,1′-biphenyl]-4-yl)-[1,1′-biphenyl]-3-carboxamide]: the IC50 was 680 ± 130 nM in assay [1] (setting [9]) and 1320 ± 80 nM in assay [2] (setting [10]).
For `CN1CCC(Oc2ccc(-c3ccc(NC(=O)c4ccccc4)cc3)cc2)CC1` [Compound 41a, N-(4′-((1-methylpiperidin-4-yl)oxy)-[1,1′-biphenyl]-4-yl)benzamide], the 50% inhibitory concentration (IC50) in assay [1] (setting [3]) was 4130 ± 220 nM; in assay [2] (setting [4]), 3950 ± 130 nM.
For the compound `Cc1ccc(C(=O)Nc2ccc(-c3ccc(OC4CCN(C)CC4)cc3)cc2)cc1` [Compound 41e, 4-methyl-N-(4′-((1-methylpiperidin-4-yl)oxy)-[1,1′-biphenyl]-4-yl)benzamide], the figures for the IC50 in assay [1] (setting [3]) and in assay [2] (setting [4]) were 980 ± 190 nM and 1270 ± 130 nM, respectively.
On to `COc1cccc(-c2cc(C(=O)Nc3ccc(-c4ccc(OC5CCN(C)CC5)c(C)c4)cc3)ccc2OC)c1` [Compound 29a, 3′,6-dimethoxy-N-(3′-methyl-4′-((1-methylpiperidin-4-yl)oxy)-[1,1′-biphenyl]-4-yl)-[1,1′-biphenyl]-3-carboxamide], for which the IC50 in assay [1] (setting [9]) came to 830 ± 30 nM; in assay [2] (setting [10]) it was 1690 ± 80 nM.
In the case of `COc1cccc(-c2cc(C(=O)Nc3ccc(-c4ccc(OC5CCN(C)CC5)c(C#N)c4)cc3)ccc2OC)c1` [Compound 29m, N-(3′-cyano-4′-((1-methylpiperidin-4-yl)oxy)-[1,1′-biphenyl]-4-yl)-3′,6-dimethoxy-[1,1′-biphenyl]-3-carboxamide], the results for the IC50 in assay [1] (setting [9]) and in assay [2] (setting [10]) were 2770 ± 1160 nM and 3700 ± 610 nM, respectively.
For `Cc1ccc(C(=O)Nc2ccc(-c3ccc(OC4CCN(C)CC4)cc3)cc2)cc1I` [Compound 41m, 3-iodo-4-methyl-N-(4′-((1-methylpiperidin-4-yl)oxy)-[1,1′-biphenyl]-4-yl)benzamide], the figures for the IC50 in assay [1] (setting [3]) and in assay [2] (setting [4]) were 930 ± 200 nM and 1170 ± 200 nM, respectively.
Take `Cc1ccc(C(=O)Nc2ccc(-c3ccc(OC4CCN(C)CC4)cc3)cc2)cc1Br` [Compound 41l, 3-bromo-4-methyl-N-(4′-((1-methylpiperidin-4-yl)oxy)-[1,1′-biphenyl]-4-yl)benzamide]: the half-maximal inhibitory concentration (IC50) in assay [1] (setting [3]) turned out to be 2800 ± 180 nM; in assay [2] (setting [4]), 3350 ± 360 nM.
Turning to `CN1CCC(Oc2ccc(-c3ccc(NC(=O)c4ccc(Cl)cc4Cl)cc3)cc2)CC1` [Compound 41p, 2,4-dichloro-N-(4′-((1-methylpiperidin-4-yl)oxy)-[1,1′-biphenyl]-4-yl)benzamide], the figures for the concentration for half-maximal inhibition (IC50) in assay [1] (setting [3]) and in assay [2] (setting [4]) were 800 ± 220 nM and 1370 ± 330 nM, respectively.
Consider `COc1ccc(C(=O)Nc2ccc(-c3ccc(OC4CCN(C)CC4)cc3)cc2)cc1-c1cccc(O)c1` [Compound 50a, 3′-hydroxy-6-methoxy-N-(4′-((1-methylpiperidin-4-yl)oxy)-[1,1′-biphenyl]-4-yl)-[1,1′-biphenyl]-3-carboxamide], for which the IC50 was determined as 1560 ± 350 nM in assay [1] (setting [7]) and 1080 ± 340 nM in assay [2] (setting [8]).
Regarding `CN1CCC(Oc2ccc(-c3cccc(NC(=O)c4ccc5ccccc5c4)c3)cc2)CC1` [Compound 6q], the IC50 in assay [1] (setting [12]) was determined as 2090 ± 340 nM; in assay [2] (setting [14]) it was 1660 ± 270 nM.
Take `COc1cccc(-c2cc(C(=O)Nc3ccc(-c4ccc(OCCC5CCCN5C)cc4)cc3)ccc2OC)c1` (stereo not shown) [Compound 56d, 3′,6-dimethoxy-N-(4′-(2-(1-methylpyrrolidin-2-yl)ethoxy)-[1,1′-biphenyl]-4-yl)-[1,1′-biphenyl]-3-carboxamide]: the concentration for half-maximal inhibition (IC50) in assay [1] (setting [15]) worked out at 1750 ± 240 nM.
